US9409880B2, “Modulators of TLR3/dsRNA complex and uses thereof” (The Regents of the University of Colorado, a body corporate, priority 2011, dated 2016)

Target: T1, TLR7 (Mus musculus, UniProt P58681)
T1 construct: endogenous in cells; host or cells: RAW 264.7
T1 sequence (P58681 27-1050): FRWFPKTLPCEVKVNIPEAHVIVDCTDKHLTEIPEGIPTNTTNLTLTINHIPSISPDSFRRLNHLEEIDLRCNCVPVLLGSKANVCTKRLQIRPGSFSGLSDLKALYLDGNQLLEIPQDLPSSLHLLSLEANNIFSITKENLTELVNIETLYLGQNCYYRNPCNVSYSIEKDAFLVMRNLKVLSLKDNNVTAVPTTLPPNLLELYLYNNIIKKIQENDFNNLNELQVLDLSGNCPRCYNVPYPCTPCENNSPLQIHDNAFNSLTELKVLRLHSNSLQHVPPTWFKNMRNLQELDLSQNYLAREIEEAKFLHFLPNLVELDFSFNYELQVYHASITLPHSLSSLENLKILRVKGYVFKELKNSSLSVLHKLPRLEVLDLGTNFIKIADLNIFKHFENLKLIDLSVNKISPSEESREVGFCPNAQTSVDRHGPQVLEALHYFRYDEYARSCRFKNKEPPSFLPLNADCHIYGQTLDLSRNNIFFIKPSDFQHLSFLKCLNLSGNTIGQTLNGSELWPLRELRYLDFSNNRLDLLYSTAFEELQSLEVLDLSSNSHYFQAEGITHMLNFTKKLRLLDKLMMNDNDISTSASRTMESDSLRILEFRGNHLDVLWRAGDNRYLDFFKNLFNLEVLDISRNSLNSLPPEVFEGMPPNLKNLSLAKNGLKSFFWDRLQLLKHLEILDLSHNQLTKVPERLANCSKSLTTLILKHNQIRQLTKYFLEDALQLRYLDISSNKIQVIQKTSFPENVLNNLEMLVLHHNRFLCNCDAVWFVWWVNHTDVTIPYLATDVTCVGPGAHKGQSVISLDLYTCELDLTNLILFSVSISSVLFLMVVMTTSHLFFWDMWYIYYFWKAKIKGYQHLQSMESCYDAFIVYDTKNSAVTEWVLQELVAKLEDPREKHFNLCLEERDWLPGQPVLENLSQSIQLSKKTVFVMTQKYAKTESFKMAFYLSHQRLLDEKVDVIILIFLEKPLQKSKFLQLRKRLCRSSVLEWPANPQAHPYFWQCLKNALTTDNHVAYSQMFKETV
Assay: RAW264.7 cell nitric oxide TLR selectivity assay (R848)
Assay type: cell-based
Details: 27 μM

With O=C(N[C@H](Cc1ccccc1)C(=O)O)c1sc2cc(F)ccc2c1Cl [Compound 4a, (R)-2-(3-chloro-6-fluorobenzo[b]thiophene-2-carboxamido)-3-phenylpropanoic acid] the “effect on TLR7 signaling” value was “without significantly affecting other TLRs”.
